Here are results for four molecules from article PMC4146477, “Synthesis and Antimycobacterial and Photosynthesis-Inhibiting Evaluation of 2-[(E)-2-Substituted-ethenyl]-1,3-benzoxazoles” (The Scientific World Journal, 2014).

In brackets after ≈: the same amount, converted by molar mass.

Test system in one data set: not listed separately
In words: Lipophilicity determination by RP-HPLC (capacity factor k / log k). The class given is physicochemical. Conditions: C18, MeOH 70% / H2O 30%, isocratic. The text has this:
A Waters Alliance 2695 XE HPLC separation module and a Waters Photodiode Array Detector 2996 (Waters Corp., Milford, MA, USA) were used. A Symmetry C18 5 μm, 4.6 × 250 mm, Part No. WAT054275 (Waters Corp., Milford, MA, USA) chromatographic column was used. The HPLC separation process was monitored by Empower 2 Chromatography Data Software, Waters 2009 (Waters Corp., Milford, MA, USA). A mixture of MeOH p.a. (70%) and H2O-HPLC - Mili-Q Grade (30%) was used as a mobile phase. The total flow of the column was 1.0 mL/min, injection volume, 30 μL, column temperature, 45°C, and sample temperature, 10°C. The detection wavelength of 210 nm was chosen. The KI methanolic solution was used for the dead time (t D) determination. Retention times (t R) were measured in minutes. The capacity factors k were calculated using the Empower 2 Chromatography Data Software according to formula k = (t R − t D)/t D, where t R is the retention time of the solute, whereas t D denotes the dead time obtained using an unretained analyte.
Lipophilicity is a property that has a major effect on ADME/Tox properties as well as pharmacological activity, because drugs mostly cross biological membranes through passive transport, which strongly depends on their lipophilicity. Lipophilicity has been studied and applied as an important drug property for decades. This parameter was measured by means of RP-HPLC and expressed as logarithm of capacity factor k. The procedure was performed under isocratic conditions with methanol as an organic modifier in the mobile phase using an end-capped nonpolar C18 stationary RP column. The hydrophobic contributions (expressed as distributive parameters π) of individual substituents in C(2) position of 2-[(E)-2-substituted-ethenyl]-1,3-benzoxazole scaffold were predicted using ACD/Percepta ver. 2012 (Advanced Chemistry Development, Inc., Toronto, ON, Canada). The results are shown in Table 1 and the match of the experimental determined lipophilicity log k with calculated distributive parameters π is illustrated in Figure 1.
Turning to `COc1ccc(/C=C/c2nc3ccccc3o2)cc1` [Compound 3, 2-[(E)-2-(4-Methoxyphenyl)ethenyl]-1,3-benzoxazole], the log k was 0.9382.

`CSc1ccc(/C=C/c2nc3ccccc3o2)cc1` [Compound 4, 2-{(E)-2-[4-(Methylsulfanyl)phenyl]ethenyl}-1,3-benzoxazole]: the log k was determined as 1.1225.

Regarding `COc1ccc(/C=C/C=C/c2nc3ccccc3o2)cc1` [Compound 12, 2-[(1E,3E)-4-(4-Methoxyphenyl)buta-1,3-dien-1-yl]-1,3-benzoxazole], the log k is on record as 1.1394.

As for `COc1ccccc1/C=C/c1nc2ccccc2o1` [Compound 2, 2-[(E)-2-(2-Methoxyphenyl)ethenyl]-1,3-benzoxazole], the log k is reported as 0.9325.

The test system of a further data set is Mycobacterium tuberculosis My 331/88. In words: In vitro antimycobacterial evaluation (MIC, Sula semisynthetic medium). Conditions: MY331/88, 336 h, 14d incubation. The class given is cell-based.
Turning to `COc1ccc(/C=C/c2nc3ccccc3o2)cc1` [Compound 3, 2-[(E)-2-(4-Methoxyphenyl)ethenyl]-1,3-benzoxazole], the MIC is 62.5 µM (≈ 15.7 µg/mL).

`CSc1ccc(/C=C/c2nc3ccccc3o2)cc1` [Compound 4, 2-{(E)-2-[4-(Methylsulfanyl)phenyl]ethenyl}-1,3-benzoxazole]: the minimum inhibitory concentration (MIC) is 62.5 µM (≈ 16.7 µg/mL).

For `COc1ccc(/C=C/C=C/c2nc3ccccc3o2)cc1` [Compound 12, 2-[(1E,3E)-4-(4-Methoxyphenyl)buta-1,3-dien-1-yl]-1,3-benzoxazole], the MIC is 125 µM (≈ 34.7 µg/mL).

As to `COc1ccccc1/C=C/c1nc2ccccc2o1` [Compound 2, 2-[(E)-2-(2-Methoxyphenyl)ethenyl]-1,3-benzoxazole], 125 µM (≈ 31.4 µg/mL) was the least that counted as inhibitory (MIC).

Staying with this data set, now noted: MY331/88, 504 h, 21d incubation.
Molecule `COc1ccc(/C=C/c2nc3ccccc3o2)cc1` [Compound 3, 2-[(E)-2-(4-Methoxyphenyl)ethenyl]-1,3-benzoxazole] displayed an MIC of 62.5 µM (≈ 15.7 µg/mL).

Regarding `CSc1ccc(/C=C/c2nc3ccccc3o2)cc1` [Compound 4, 2-{(E)-2-[4-(Methylsulfanyl)phenyl]ethenyl}-1,3-benzoxazole], the minimum inhibitory concentration (MIC) turned out to be 125 µM (≈ 33.4 µg/mL).

`COc1ccc(/C=C/C=C/c2nc3ccccc3o2)cc1` [Compound 12, 2-[(1E,3E)-4-(4-Methoxyphenyl)buta-1,3-dien-1-yl]-1,3-benzoxazole]: the lowest concentration to inhibit growth (MIC) was 250 µM (≈ 69.3 µg/mL).

In the case of `COc1ccccc1/C=C/c1nc2ccccc2o1` [Compound 2, 2-[(E)-2-(2-Methoxyphenyl)ethenyl]-1,3-benzoxazole], inhibition of growth (MIC) required 125 µM (≈ 31.4 µg/mL).

A further data set relates to M. avium My 330/88. The description is as above. Conditions: Mycobacterium avium, MY330/88, 336 h; 14d incubation. The class given is cell-based.
Molecule `COc1ccc(/C=C/c2nc3ccccc3o2)cc1` [Compound 3, 2-[(E)-2-(4-Methoxyphenyl)ethenyl]-1,3-benzoxazole] came in with an MIC of 32 µM (≈ 8.04 µg/mL).

For `CSc1ccc(/C=C/c2nc3ccccc3o2)cc1` [Compound 4, 2-{(E)-2-[4-(Methylsulfanyl)phenyl]ethenyl}-1,3-benzoxazole], 62.5 µM (≈ 16.7 µg/mL) was the least that counted as inhibitory (MIC).

In turn, `COc1ccc(/C=C/C=C/c2nc3ccccc3o2)cc1` [Compound 12, 2-[(1E,3E)-4-(4-Methoxyphenyl)buta-1,3-dien-1-yl]-1,3-benzoxazole] yielded an MIC of 125 µM (≈ 34.7 µg/mL).

`COc1ccccc1/C=C/c1nc2ccccc2o1` [Compound 2, 2-[(E)-2-(2-Methoxyphenyl)ethenyl]-1,3-benzoxazole]: it took 62.5 µM (≈ 15.7 µg/mL) to inhibit growth (MIC).

The data set is the same for the next values; noted with them: Mycobacterium avium, MY330/88, 504 h; 21d incubation.
`COc1ccc(/C=C/c2nc3ccccc3o2)cc1` [Compound 3, 2-[(E)-2-(4-Methoxyphenyl)ethenyl]-1,3-benzoxazole]: the minimum inhibitory concentration (MIC) was found to be 62.5 µM (≈ 15.7 µg/mL).

`CSc1ccc(/C=C/c2nc3ccccc3o2)cc1` [Compound 4, 2-{(E)-2-[4-(Methylsulfanyl)phenyl]ethenyl}-1,3-benzoxazole] displayed a minimum inhibitory concentration (MIC) of 62.5 µM (≈ 16.7 µg/mL).

In turn, `COc1ccc(/C=C/C=C/c2nc3ccccc3o2)cc1` [Compound 12, 2-[(1E,3E)-4-(4-Methoxyphenyl)buta-1,3-dien-1-yl]-1,3-benzoxazole] showed an MIC of 125 µM (≈ 34.7 µg/mL).

The molecule `COc1ccccc1/C=C/c1nc2ccccc2o1` [Compound 2, 2-[(E)-2-(2-Methoxyphenyl)ethenyl]-1,3-benzoxazole] gave an MIC of 125 µM (≈ 31.4 µg/mL).

A further data set deals with M. kansasii My 235/80. Described as above. Conditions: Mycobacterium kansasii, MY235/80, 336 h; 14d incubation; read-out: MIC MK. Format: cell-based.
Consider `COc1ccc(/C=C/c2nc3ccccc3o2)cc1` [Compound 3, 2-[(E)-2-(4-Methoxyphenyl)ethenyl]-1,3-benzoxazole], for which the MIC amounted to 62.5 µM (≈ 15.7 µg/mL).

As for `CSc1ccc(/C=C/c2nc3ccccc3o2)cc1` [Compound 4, 2-{(E)-2-[4-(Methylsulfanyl)phenyl]ethenyl}-1,3-benzoxazole], the MIC worked out at 62.5 µM (≈ 16.7 µg/mL).

On to `COc1ccc(/C=C/C=C/c2nc3ccccc3o2)cc1` [Compound 12, 2-[(1E,3E)-4-(4-Methoxyphenyl)buta-1,3-dien-1-yl]-1,3-benzoxazole], for which the MIC was 125 µM (≈ 34.7 µg/mL).

With `COc1ccccc1/C=C/c1nc2ccccc2o1` [Compound 2, 2-[(E)-2-(2-Methoxyphenyl)ethenyl]-1,3-benzoxazole], the MIC was found to be 125 µM (≈ 31.4 µg/mL).

The same data set, now with this note: Mycobacterium kansasii, MY235/80, 504 h; 21d incubation; read-out: MIC MK.
As to `COc1ccc(/C=C/c2nc3ccccc3o2)cc1` [Compound 3, 2-[(E)-2-(4-Methoxyphenyl)ethenyl]-1,3-benzoxazole], the MIC was 125 µM (≈ 31.4 µg/mL).

As for `CSc1ccc(/C=C/c2nc3ccccc3o2)cc1` [Compound 4, 2-{(E)-2-[4-(Methylsulfanyl)phenyl]ethenyl}-1,3-benzoxazole], the minimum inhibitory concentration (MIC) came out at 62.5 µM (≈ 16.7 µg/mL).

Regarding `COc1ccc(/C=C/C=C/c2nc3ccccc3o2)cc1` [Compound 12, 2-[(1E,3E)-4-(4-Methoxyphenyl)buta-1,3-dien-1-yl]-1,3-benzoxazole], the MIC was found to be 250 µM (≈ 69.3 µg/mL).

In the case of `COc1ccccc1/C=C/c1nc2ccccc2o1` [Compound 2, 2-[(E)-2-(2-Methoxyphenyl)ethenyl]-1,3-benzoxazole], the MIC is 125 µM (≈ 31.4 µg/mL).

Still in this data set, the particulars now being: Mycobacterium kansasii, MY235/80, incubation time not stated; read-out: inhibitory activity (MIC) against M. kansasii.
Turning to `CSc1ccc(/C=C/c2nc3ccccc3o2)cc1` [Compound 4, 2-{(E)-2-[4-(Methylsulfanyl)phenyl]ethenyl}-1,3-benzoxazole], the minimal inhibitory concentration (MIC) is 62.5 µM (≈ 16.7 µg/mL).

The subject of another data set is photosynthetic electron transport (PET) in spinach chloroplasts. In words: Inhibition of photosynthetic electron transport (PET) in spinach chloroplasts (DCPIP photoreduction). Format: biochemical, Spinacia oleracea L. Conditions: DCPIP as electron acceptor. On the procedure: Chloroplasts were prepared from spinach (Spinacia oleracea L.) according to Masarovicova and Kralova. The inhibition of photosynthetic electron transport (PET) in spinach chloroplasts was determined spectrophotometrically (Genesys 6, Thermo Scientific), using an artificial electron acceptor 2,6-dichlorophenol-indophenol (DCPIP) according to Kralova et al., and the rate of photosynthetic electron transport was monitored as a photoreduction of DCPIP. The measurements were carried out in phosphate buffer (0.02 mol/L, pH 7.2) containing sucrose (0.4 mol/L), MgCl2 (0.005 mol/L), and NaCl (0.015 mol/L). The chlorophyll content was 30 mg/L in these experiments and the samples were irradiated (~100 W/m^2 with 10 cm distance) with a halogen lamp (250 W) using a 4 cm water filter to prevent warming of the samples (suspension temperature 22°C). The studied compounds were dissolved in DMSO due to their limited water solubility. […] The inhibitory efficiency of the studied compounds was expressed by IC50 values, that is, by molar concentration of the compounds causing 50% decrease in the oxygen evolution rate relative to the untreated control.
`COc1ccc(/C=C/c2nc3ccccc3o2)cc1` [Compound 3, 2-[(E)-2-(4-Methoxyphenyl)ethenyl]-1,3-benzoxazole] showed a half-inhibitory concentration (IC50) of 216 µM.

On to `CSc1ccc(/C=C/c2nc3ccccc3o2)cc1` [Compound 4, 2-{(E)-2-[4-(Methylsulfanyl)phenyl]ethenyl}-1,3-benzoxazole], for which the midpoint of inhibition, the IC50, lay at 199 µM.

With `COc1ccc(/C=C/C=C/c2nc3ccccc3o2)cc1` [Compound 12, 2-[(1E,3E)-4-(4-Methoxyphenyl)buta-1,3-dien-1-yl]-1,3-benzoxazole], it took 351 µM to reach half-maximal inhibition (IC50).

In turn, `COc1ccccc1/C=C/c1nc2ccccc2o1` [Compound 2, 2-[(E)-2-(2-Methoxyphenyl)ethenyl]-1,3-benzoxazole] displayed a half-inhibitory concentration (IC50) of 76.3 µM.

The next data set deals with aromatic amino acids in photosynthetic proteins of spinach chloroplasts. In words: Aromatic amino acids (AAA) fluorescence in spinach chloroplasts. The class given is biochemical, Spinacia oleracea L. As to conditions: increasing concentration (0, 3.2, 6.4, 9.6 μmol/L), excitation 275 nm. As for the experimental part:
The fluorescence emission spectra of aromatic amino acids (AAA) in spinach chloroplasts were recorded on fluorescence spectrophotometer F-2000 (Hitachi, Tokyo, Japan) using excitation wavelength λ ex = 275 nm, excitation slit 20 nm, and emission slit 10 nm. The phosphate buffer used for dilution of the chloroplast suspension was the same as described above. Due to low aqueous solubility the compounds were added to the chloroplast suspension in DMSO solution. The DMSO concentration in all samples was the same as in the control (10%). The chlorophyll concentration in the chloroplast suspension was 10 mg/L. The interaction of studied compounds with aromatic amino acids (AAA) occurring in photosynthetic proteins of spinach chloroplasts situated in PS II was monitored by the quenching of AAA fluorescence at 334 nm.
On to `COc1ccc(/C=C/c2nc3ccccc3o2)cc1` [Compound 3, 2-[(E)-2-(4-Methoxyphenyl)ethenyl]-1,3-benzoxazole], for which the “AAA fluorescence at 334 nm” value is “strong decline”.
